The text below walks through data of patent US9776990B2, “Isoindolone derivatives” (AbbVie Inc., priority 2012, dated 2017).

Assay [1] has as its system breast cancer cell line MX-1. The experiment in a line: MX-1 cell line proliferation assay (3-day, Cell Titer Glo). It counts as cell-based, human. Conditions: Homo sapiens, MX1, MX-1 cells, 72 hours, read-out: Cellular proliferation: EC50. The procedure: The impact of compounds of the Examples on cancer cell proliferation was determined using the breast cancer cell line MX-1 (ATCC) in a 3-day proliferation assay. MX-1 cells were maintained in RPMI supplemented with 10% FBS at 37 C.° and an atmosphere of 5% CO2. For compound testing, MX-1 cells were plated in 96-well black bottom plates at a density of 5000 cells/well in 90 μl of culture media and incubated at 37° overnight to allow cell adhesion and spreading. Compound dilution series were prepared in DMSO via a 3-fold serial dilution from 3 mM to 0.1 μM. The DMSO dilution series were then diluted 1:100 in phosphate buffered saline, and 10 μL of the resulted solution were added to the appropriate wells of the MX-1 cell plate. The final compound concentrations in the wells were 3, 1, 0.3, 0.1, 0.03, 0.01, 0.003, 0.001, 0.0003 and 0.0001 μM.
Luminescence readings from the Cell Titer Glo assay were normalized to the DMSO treated cells and analyzed using the GraphPad Prism software with sigmoidal curve fitting to obtain EC50s. The minimum significant ratio (MSR) was determined to evaluate assay reproducibility (Eastwood et al., (2006) J Biomol Screen, 11: 253-261).

For another assay, the system named is SKM1. Description: Proliferation panel assay, SKM1. It counts as cell-based. Conditions: Homo sapiens, SKM-1, 120 h; AML, SKM1, 5 days; read-out: Cellular Proliferation EC50. The procedure:
(§1) The impact of compounds of the Examples on cancer cell proliferation was determined using the breast cancer cell line MX-1 (ATCC) in a 3-day proliferation assay. MX-1 cells were maintained in RPMI supplemented with 10% FBS at 37 C.° and an atmosphere of 5% CO2. For compound testing, MX-1 cells were plated in 96-well black bottom plates at a density of 5000 cells/well in 90 μl of culture media and incubated at 37° overnight to allow cell adhesion and spreading. Compound dilution series were prepared in DMSO via a 3-fold serial dilution from 3 mM to 0.1 μM. […]
(§2) Luminescence readings from the Cell Titer Glo assay were normalized to the DMSO treated cells and analyzed using the GraphPad Prism software with sigmoidal curve fitting to obtain EC50s. The minimum significant ratio (MSR) was determined to evaluate assay reproducibility (Eastwood et al., (2006) J Biomol Screen, 11: 253-261). The overall MSR was determined to be 2.1 and a moving MSR (last six run MSR overtime) has been <2.
(§3) The compound of Example 40 was tested for its impact on proliferation of a panel of cancer cell line types (with specific cell lines tested) as set out in (Table 2). […] Cell proliferation data were analyzed as described above in the MX-1 proliferation assay to obtain the EC50 for the compounds reported in Table 2.

In the next assay the test system is EJ-1. Description: Proliferation panel assay, EJ-1. It counts as cell-based. To be noted: EJ1, 120 h; Bladder, EJ-1, 5 days; read-out: Cellular Proliferation EC50. As for the experimental part: as §1, §2, §3
A further assay relates to MDAMB453. Description: Proliferation panel assay, MDAMB453. The assay is classed as cell-based. To be noted: Homo sapiens, MDA-MB-453, 120 h; Breast, MDAMB453, 5 days; read-out: Cellular Proliferation EC50. The procedure: as §1, §2, §3
The subject of the next assay is DLD-1. Description: Proliferation panel assay, DLD-1. Conditions: Homo sapiens, 120 h; Colon, DLD-1, 5 days; read-out: Cellular Proliferation EC50. The assay is classed as cell-based. As for the experimental part: as §1, §2, §3
The test system of the next assay is A-375. Description: Proliferation panel assay, A-375. It counts as cell-based. Conditions: Homo sapiens, 120 h; Melanoma, A-375, 5 days; read-out: Cellular Proliferation EC50. As for the experimental part:
as §1, §2, §3

Another assay relates to RPMI-8226. The experiment in a line: Proliferation panel assay, RPMI-8226. The assay is classed as cell-based. To be noted: Homo sapiens, 120 h; Multiple Myeloma, RPMI-8226, 5 days; read-out: Cellular Proliferation EC50. The procedure:
as §1, §2, §3

Another assay relates to H1299. Description: Proliferation panel assay, H1299. To be noted: Homo sapiens, NCI-H1299, 120 h; NSCLC, H1299, 5 days; read-out: Cellular Proliferation EC50. The assay is classed as cell-based. The procedure:
as §1, §2, §3

The test system of a further assay is H1975. The experiment in a line: Proliferation panel assay, H1975. The assay is classed as cell-based. To be noted: Homo sapiens, NCI-H1975, 120 h; NSCLC, H1975, 5 days; read-out: Cellular Proliferation EC50. As for the experimental part:
as §1, §2, §3

The test system of a further assay is H460. Description: Proliferation panel assay, H460. It counts as cell-based. To be noted: Homo sapiens, NCI-H460, 120 h; NSCLC, H460, 5 days; read-out: Cellular Proliferation EC50. As for the experimental part: as §1, §2, §3
Another assay relates to PC3M. The experiment in a line: Proliferation panel assay, PC3M. It counts as cell-based. Conditions: Homo sapiens, PC-3M, 120 h, Prostate, 5 days, read-out: Cellular Proliferation EC50. As for the experimental part:
as §1, §2, §3

The subject of assay [2] is LPS induced IL-6 production. Description: LPS (lipopolysaccharide) induced IL-6 production mouse assay. The assay is classed as in vivo. Conditions: mice, one hour before LPS, serum 2 hours after LPS. The procedure: Compounds of the Examples listed in Table 8 were assayed for their ability to inhibit LPS (lipopolysaccharide) induced IL-6 production in mice. Severe combined immunodeficient female mice (8 per group) received an intraperitoneal challenge of lipopolysaccharide (2.5 mg/kg, L2630 E. coli 0111:B4) one hour after oral administration (PO) or intraperitoneal administration (IP) of compounds in a solution of 2% ethanol, 5% Tween-80, 20% PEG-400 and 73% (0.2% hydroxypropylmethylcellulose in water). Mice were euthanized 2 hours after lipopolysaccharide injection, blood was removed by cardiac puncture, and then the serum harvested from the blood samples was frozen at −80° C. On the day of the assay the serum samples were brought to room temperature and then diluted 1:20 in phosphate-buffered saline containing 2% bovine serum albumin. Interleukin-6 measurements were performed using a cytokine assay from Meso Scale Discovery (Gaithersburg, Md.) for mouse serum analysis according to the manufacturer's protocol and read on a SECTOR Imager 6000 (Meso Scale Discovery, Gaithersburg, Md.) instrument. Statistical analysis was performed using Prism software (version 5.0) incorporating Dunnett's one way ANOVA. The IL-6 mean and standard deviation of the group of vehicle treated animals were compared with the IL-6 mean and standard deviation of the group treated with drug. A p value <0.05 means that there is less than a 5% probability that the mean values in the two groups are equal.

Each structure is given as a SMILES string.

In the case of `Cc1[nH]c(-c2cc(NS(C)(=O)=O)ccc2Oc2ccccc2)c2c1C(=O)CCC2` [Example 40, N-[3-(3-methyl-4-oxo-4,5,6,7-tetrahydro-2H-isoindol-1-yl)-4-phenoxyphenyl]methanesulfonamide], the EC50 in [1] is 160 nM; in the assay with SKM1, 39 nM; in the assay with EJ-1, 594 nM; with MDAMB453, 220 nM; with DLD-1, 450 nM; with A-375, 168 nM. Further, the EC50 in the assay with RPMI-8226 is 94 nM; with H1299 it was 360 nM; with H1975, 180 nM; in the assay with H460, over 10000 nM; with PC3M, 410 nM. The “% inhibition of LPS induced IL-6 production” value in assay [2] (3 mg/kg (PO)) was 28.7 at 3 mg/kg (PO) %; in [2] (10 mg/kg (PO)) it was 52.4 at 10 mg/kg (PO) %; in assay [2] (30 mg/kg (PO)), 72.7 at 30 mg/kg (PO) %; in assay [2] (50 mg/kg (IP)) it was 84.7 at 50 mg/kg (IP) %.
